Experimental data from BigSolDB 2.1.

Settings: in water

O=C(O)CCCCCC(=O)O
Settings | solubility (mole fraction)
279.15 K | 0.00204
281.15 K | 0.00211
284.15 K | 0.00245
289.15 K | 0.00417
291.15 K | 0.00474
293.15 K | 0.00568
297.15 K | 0.00738
298.15 K | 0.00756
302.15 K | 0.00906
304.15 K | 0.00994
307.15 K | 0.0113
310.15 K | 0.0132
313.15 K | 0.0186
316.15 K | 0.0364
318.15 K | 0.0464
320.65 K | 0.0584
323.15 K | 0.0776
327.98 K | 0.14
333.15 K | 0.189
337.65 K | 0.261
342.15 K | 0.328

O=C(O)CCCC(=O)O
Settings | solubility (mole fraction)
279.15 K | 0.0734
281.15 K | 0.0784
284.15 K | 0.085
286.15 K | 0.101
289.15 K | 0.118
291.15 K | 0.129
293.15 K | 0.139
298.15 K | 0.16
302.15 K | 0.189
304.15 K | 0.2
307.15 K | 0.216
310.15 K | 0.236
312.15 K | 0.249
316.15 K | 0.281
317.15 K | 0.287
318.15 K | 0.289
320.55 K | 0.308
323.15 K | 0.327
327.65 K | 0.355
329.15 K | 0.398
332.15 K | 0.419
334.25 K | 0.424
336.15 K | 0.478
342.15 K | 0.537

O=C(O)c1ccccc1C(=O)O
Settings | solubility (mole fraction)
283.65 K | 0.000284
296.15 K | 0.000709
298.15 K | 0.000761
302.65 K | 0.000935
307.15 K | 0.00107
309.15 K | 0.00119
311.15 K | 0.00126
315.15 K | 0.00151
317.15 K | 0.00164
318.15 K | 0.00164
319.15 K | 0.00181
320.15 K | 0.00205
323.15 K | 0.00223
327.15 K | 0.00248
334.15 K | 0.00323
338.15 K | 0.004

O=C(O)c1ccco1
Settings | solubility (mole fraction)
279.15 K | 0.00411
280.15 K | 0.00414
283.65 K | 0.00431
284.15 K | 0.00462
285.15 K | 0.00471
289.15 K | 0.00483
294.15 K | 0.00633
298.15 K | 0.00796
301.15 K | 0.00886
302.15 K | 0.0099
307.15 K | 0.0125
309.15 K | 0.013
311.15 K | 0.0154
315.15 K | 0.0231
317.15 K | 0.0257
319.8 K | 0.031
323.15 K | 0.0513
325.15 K | 0.0664
327.15 K | 0.0722
327.65 K | 0.074
328.15 K | 0.0907
330.65 K | 0.128
333.2 K | 0.144
334.55 K | 0.144
336.15 K | 0.199
341.15 K | 0.262

O=C(O)c1ccccc1O
Settings | solubility (mole fraction)
283.15 K | 0.0002
298.15 K | 0.000333
307.15 K | 0.000441
317.15 K | 0.000572
318.15 K | 0.000677
320.15 K | 0.000672
323.15 K | 0.000742
324.15 K | 0.000785
325.15 K | 0.000847
327.15 K | 0.000934
328.15 K | 0.000964
330.65 K | 0.00111
334.65 K | 0.00131
339.15 K | 0.00149
